From ChEMBL document CHEMBL4507295 (2021)

Legend:
Details in all cases: Compound concentration 1000.0 nM
[1] = target: Ribosomal protein S6 kinase alpha-5 (Homo sapiens) (UniProt O75582)
[2] = target: TGF-beta receptor type-2 (Homo sapiens) (UniProt P37173)
[3] = target: Serine/threonine-protein kinase SIK3 (Homo sapiens) (UniProt Q9Y2K2)
[4] = tested on: Receptor-type tyrosine-protein kinase FLT3 (Homo sapiens), P36888 [UNDEFINED MUTATION]
[5] = target: STE20-like serine/threonine-protein kinase (Homo sapiens) (UniProt Q9H2G2)
[6] = target: Mitogen-activated protein kinase 8 (Homo sapiens) (UniProt P45983)
[7] = target: Tyrosine-protein kinase ABL1 (Homo sapiens) (UniProt P00519)
[8] = target: Mitogen-activated protein kinase kinase kinase kinase 1 (Homo sapiens) (UniProt Q92918)
[9] = tested on: Epidermal growth factor receptor (Homo sapiens), P00533 [G719S]
[10] = target: Glycogen synthase kinase-3 alpha (Homo sapiens) (UniProt P49840)
[11] = target: Casein kinase II subunit alpha (Homo sapiens) (UniProt P68400)
[12] = target: Serine/threonine-protein kinase pim-1 (Homo sapiens) (UniProt P11309)
[13] = target: SRSF protein kinase 1 (Homo sapiens) (UniProt Q96SB4)
Sequence of SRSF protein kinase 1 (Homo sapiens) (Q96SB4 whole entry, canonical isoform): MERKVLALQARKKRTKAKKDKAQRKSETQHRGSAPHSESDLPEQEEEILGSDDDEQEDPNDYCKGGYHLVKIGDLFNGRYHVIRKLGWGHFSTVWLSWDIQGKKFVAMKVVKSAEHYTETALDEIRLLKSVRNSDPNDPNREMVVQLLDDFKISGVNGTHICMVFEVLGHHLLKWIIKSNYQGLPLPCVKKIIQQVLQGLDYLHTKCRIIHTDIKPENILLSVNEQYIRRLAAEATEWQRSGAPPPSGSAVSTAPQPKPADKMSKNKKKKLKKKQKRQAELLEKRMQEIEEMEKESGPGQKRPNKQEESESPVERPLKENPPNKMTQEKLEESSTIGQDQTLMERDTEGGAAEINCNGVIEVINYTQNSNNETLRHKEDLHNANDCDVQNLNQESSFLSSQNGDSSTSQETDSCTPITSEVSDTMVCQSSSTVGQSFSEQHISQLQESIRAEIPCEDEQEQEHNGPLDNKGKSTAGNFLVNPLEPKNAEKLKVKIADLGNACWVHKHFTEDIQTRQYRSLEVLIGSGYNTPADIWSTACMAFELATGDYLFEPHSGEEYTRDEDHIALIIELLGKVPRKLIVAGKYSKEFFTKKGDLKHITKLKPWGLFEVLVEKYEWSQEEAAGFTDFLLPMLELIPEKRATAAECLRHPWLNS

[14] = target: Phosphatidylinositol 4,5-bisphosphate 3-kinase catalytic subunit delta isoform (Homo sapiens) (UniProt O00329)
[15] = tested on: Mast/stem cell growth factor receptor Kit (Homo sapiens), P10721 [A829P]
[16] = target: Dual specificity tyrosine-phosphorylation-regulated kinase 1B (Homo sapiens) (UniProt Q9Y463)
[17] = target: Casein kinase I isoform alpha-like (Homo sapiens) (UniProt Q8N752)
[18] = target: Serine/threonine-protein kinase 32A (Homo sapiens) (UniProt Q8WU08)
[19] = target: Protein kinase C iota type (Homo sapiens) (UniProt P41743)
[20] = target: Tyrosine-protein kinase Srms (Homo sapiens) (UniProt Q9H3Y6)
[21] = target: Mast/stem cell growth factor receptor Kit (Homo sapiens) (UniProt P10721)
[22] = target: Serine/threonine-protein kinase VRK2 (Homo sapiens) (UniProt Q86Y07)
[23] = tested on: Tyrosine-protein kinase ABL1 (Homo sapiens), P00519 [F317L]
[24] = target: Dual specificity mitogen-activated protein kinase kinase 1 (Homo sapiens) (UniProt Q02750)
[25] = target: Phosphatidylinositol 4-phosphate 3-kinase C2 domain-containing subunit beta (Homo sapiens) (UniProt O00750)
[26] = target: Inhibitor of nuclear factor kappa-B kinase subunit beta (Homo sapiens) (UniProt O14920)
[27] = target: Calcium/calmodulin-dependent protein kinase type 1D (Homo sapiens) (UniProt Q8IU85)
[28] = target: Cyclin-dependent kinase 19 (Homo sapiens) (UniProt Q9BWU1)
[29] = target: Serine/threonine-protein kinase 38 (Homo sapiens) (UniProt Q15208)
[30] = target: Serine/threonine-protein kinase Chk1 (Homo sapiens) (UniProt O14757)
[31] = target: Activin receptor type-2B (Homo sapiens) (UniProt Q13705)
[32] = target: Ephrin type-B receptor 3 (Homo sapiens) (UniProt P54753)
[33] = target: NUAK family SNF1-like kinase 2 (Homo sapiens) (UniProt Q9H093)
[34] = target: Serine/threonine-protein kinase NLK (Homo sapiens) (UniProt Q9UBE8)
[35] = target: Casein kinase I isoform gamma-1 (Homo sapiens) (UniProt Q9HCP0)
[36] = target: Serine/threonine-protein kinase Chk2 (Homo sapiens) (UniProt O96017)
Sequence of Serine/threonine-protein kinase Chk2 (Homo sapiens) (O96017 whole entry): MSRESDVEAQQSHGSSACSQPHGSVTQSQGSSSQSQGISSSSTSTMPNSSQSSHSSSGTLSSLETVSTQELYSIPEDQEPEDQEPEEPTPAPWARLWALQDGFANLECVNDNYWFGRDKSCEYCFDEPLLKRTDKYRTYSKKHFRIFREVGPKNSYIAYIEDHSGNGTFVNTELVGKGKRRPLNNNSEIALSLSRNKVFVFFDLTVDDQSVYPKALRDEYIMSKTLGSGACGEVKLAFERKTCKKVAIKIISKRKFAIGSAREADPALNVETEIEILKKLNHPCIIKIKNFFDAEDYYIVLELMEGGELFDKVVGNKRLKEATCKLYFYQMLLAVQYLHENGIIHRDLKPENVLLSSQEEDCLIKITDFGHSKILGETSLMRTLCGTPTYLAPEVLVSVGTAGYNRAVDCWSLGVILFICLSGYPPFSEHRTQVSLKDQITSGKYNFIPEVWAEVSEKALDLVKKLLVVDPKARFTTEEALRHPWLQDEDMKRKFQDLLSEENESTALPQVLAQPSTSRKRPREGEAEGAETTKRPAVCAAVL

[37] = target: Tyrosine-protein kinase Fyn (Homo sapiens) (UniProt P06241)
Sequence of Tyrosine-protein kinase Fyn (Homo sapiens) (P06241 2-537 limits assumed): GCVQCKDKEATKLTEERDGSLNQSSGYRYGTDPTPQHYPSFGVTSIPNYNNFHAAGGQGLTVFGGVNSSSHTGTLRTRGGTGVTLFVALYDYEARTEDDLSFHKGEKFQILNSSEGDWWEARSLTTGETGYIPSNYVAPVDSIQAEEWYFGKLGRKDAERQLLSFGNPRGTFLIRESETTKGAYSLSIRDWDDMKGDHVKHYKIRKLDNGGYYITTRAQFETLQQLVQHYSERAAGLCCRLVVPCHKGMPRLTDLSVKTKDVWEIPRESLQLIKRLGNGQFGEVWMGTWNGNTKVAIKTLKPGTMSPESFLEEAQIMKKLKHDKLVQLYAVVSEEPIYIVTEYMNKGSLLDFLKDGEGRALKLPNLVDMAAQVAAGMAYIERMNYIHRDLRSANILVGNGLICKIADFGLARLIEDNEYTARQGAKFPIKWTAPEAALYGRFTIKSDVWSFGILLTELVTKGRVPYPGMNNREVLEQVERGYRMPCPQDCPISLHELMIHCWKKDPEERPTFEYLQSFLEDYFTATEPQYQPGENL

[38] = target: Tyrosine-protein kinase receptor Tie-1 (Homo sapiens) (UniProt P35590)
[39] = target: RAF proto-oncogene serine/threonine-protein kinase (Homo sapiens) (UniProt P04049)
Sequence of RAF proto-oncogene serine/threonine-protein kinase (Homo sapiens) (P04049 whole entry): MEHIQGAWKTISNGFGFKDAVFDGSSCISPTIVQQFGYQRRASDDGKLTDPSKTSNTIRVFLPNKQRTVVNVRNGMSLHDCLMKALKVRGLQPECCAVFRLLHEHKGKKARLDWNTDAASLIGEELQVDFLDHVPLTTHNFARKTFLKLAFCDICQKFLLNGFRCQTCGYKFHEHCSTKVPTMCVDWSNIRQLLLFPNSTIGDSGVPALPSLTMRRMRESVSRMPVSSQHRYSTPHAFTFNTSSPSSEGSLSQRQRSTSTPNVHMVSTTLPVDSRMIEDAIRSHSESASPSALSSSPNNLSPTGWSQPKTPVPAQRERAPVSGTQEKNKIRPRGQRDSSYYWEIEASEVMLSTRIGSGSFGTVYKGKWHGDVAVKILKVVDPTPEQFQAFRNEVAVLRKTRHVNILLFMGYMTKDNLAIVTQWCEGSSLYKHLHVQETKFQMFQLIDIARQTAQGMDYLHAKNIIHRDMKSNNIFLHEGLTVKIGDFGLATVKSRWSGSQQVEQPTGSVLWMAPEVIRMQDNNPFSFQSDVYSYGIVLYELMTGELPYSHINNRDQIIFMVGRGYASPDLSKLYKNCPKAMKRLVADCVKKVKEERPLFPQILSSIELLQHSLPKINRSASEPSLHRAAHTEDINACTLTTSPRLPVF

[40] = target: Muscle, skeletal receptor tyrosine-protein kinase (Homo sapiens) (UniProt O15146)
Sequence of Muscle, skeletal receptor tyrosine-protein kinase (Homo sapiens) (O15146 whole entry): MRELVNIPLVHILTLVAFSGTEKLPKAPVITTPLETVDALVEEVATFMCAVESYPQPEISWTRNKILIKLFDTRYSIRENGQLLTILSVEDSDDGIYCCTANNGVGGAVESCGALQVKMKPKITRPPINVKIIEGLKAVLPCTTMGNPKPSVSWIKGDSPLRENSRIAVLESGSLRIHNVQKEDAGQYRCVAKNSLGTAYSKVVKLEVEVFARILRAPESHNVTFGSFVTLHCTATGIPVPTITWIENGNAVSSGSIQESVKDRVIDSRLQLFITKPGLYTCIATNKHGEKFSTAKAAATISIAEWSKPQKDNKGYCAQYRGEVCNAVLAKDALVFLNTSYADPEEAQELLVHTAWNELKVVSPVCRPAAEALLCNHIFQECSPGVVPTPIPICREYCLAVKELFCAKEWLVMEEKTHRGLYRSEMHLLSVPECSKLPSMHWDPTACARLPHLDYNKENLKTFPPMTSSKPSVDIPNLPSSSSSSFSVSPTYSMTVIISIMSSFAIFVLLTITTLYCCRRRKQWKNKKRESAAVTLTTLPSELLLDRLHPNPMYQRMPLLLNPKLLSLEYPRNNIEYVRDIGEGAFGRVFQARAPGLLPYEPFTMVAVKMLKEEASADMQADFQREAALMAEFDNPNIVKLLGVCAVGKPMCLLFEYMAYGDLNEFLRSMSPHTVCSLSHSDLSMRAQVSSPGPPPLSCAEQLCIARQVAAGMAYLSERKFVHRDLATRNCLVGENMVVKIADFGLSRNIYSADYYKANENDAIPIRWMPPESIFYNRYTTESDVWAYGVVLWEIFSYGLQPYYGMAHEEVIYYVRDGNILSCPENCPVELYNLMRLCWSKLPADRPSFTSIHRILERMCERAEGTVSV

[41] = target: Cyclin-dependent kinase 5 (Homo sapiens) (UniProt Q00535)
[42] = target: Serine/threonine-protein kinase MRCK beta (Homo sapiens) (UniProt Q9Y5S2)
Sequence of Serine/threonine-protein kinase MRCK beta (Homo sapiens) (Q9Y5S2 whole entry): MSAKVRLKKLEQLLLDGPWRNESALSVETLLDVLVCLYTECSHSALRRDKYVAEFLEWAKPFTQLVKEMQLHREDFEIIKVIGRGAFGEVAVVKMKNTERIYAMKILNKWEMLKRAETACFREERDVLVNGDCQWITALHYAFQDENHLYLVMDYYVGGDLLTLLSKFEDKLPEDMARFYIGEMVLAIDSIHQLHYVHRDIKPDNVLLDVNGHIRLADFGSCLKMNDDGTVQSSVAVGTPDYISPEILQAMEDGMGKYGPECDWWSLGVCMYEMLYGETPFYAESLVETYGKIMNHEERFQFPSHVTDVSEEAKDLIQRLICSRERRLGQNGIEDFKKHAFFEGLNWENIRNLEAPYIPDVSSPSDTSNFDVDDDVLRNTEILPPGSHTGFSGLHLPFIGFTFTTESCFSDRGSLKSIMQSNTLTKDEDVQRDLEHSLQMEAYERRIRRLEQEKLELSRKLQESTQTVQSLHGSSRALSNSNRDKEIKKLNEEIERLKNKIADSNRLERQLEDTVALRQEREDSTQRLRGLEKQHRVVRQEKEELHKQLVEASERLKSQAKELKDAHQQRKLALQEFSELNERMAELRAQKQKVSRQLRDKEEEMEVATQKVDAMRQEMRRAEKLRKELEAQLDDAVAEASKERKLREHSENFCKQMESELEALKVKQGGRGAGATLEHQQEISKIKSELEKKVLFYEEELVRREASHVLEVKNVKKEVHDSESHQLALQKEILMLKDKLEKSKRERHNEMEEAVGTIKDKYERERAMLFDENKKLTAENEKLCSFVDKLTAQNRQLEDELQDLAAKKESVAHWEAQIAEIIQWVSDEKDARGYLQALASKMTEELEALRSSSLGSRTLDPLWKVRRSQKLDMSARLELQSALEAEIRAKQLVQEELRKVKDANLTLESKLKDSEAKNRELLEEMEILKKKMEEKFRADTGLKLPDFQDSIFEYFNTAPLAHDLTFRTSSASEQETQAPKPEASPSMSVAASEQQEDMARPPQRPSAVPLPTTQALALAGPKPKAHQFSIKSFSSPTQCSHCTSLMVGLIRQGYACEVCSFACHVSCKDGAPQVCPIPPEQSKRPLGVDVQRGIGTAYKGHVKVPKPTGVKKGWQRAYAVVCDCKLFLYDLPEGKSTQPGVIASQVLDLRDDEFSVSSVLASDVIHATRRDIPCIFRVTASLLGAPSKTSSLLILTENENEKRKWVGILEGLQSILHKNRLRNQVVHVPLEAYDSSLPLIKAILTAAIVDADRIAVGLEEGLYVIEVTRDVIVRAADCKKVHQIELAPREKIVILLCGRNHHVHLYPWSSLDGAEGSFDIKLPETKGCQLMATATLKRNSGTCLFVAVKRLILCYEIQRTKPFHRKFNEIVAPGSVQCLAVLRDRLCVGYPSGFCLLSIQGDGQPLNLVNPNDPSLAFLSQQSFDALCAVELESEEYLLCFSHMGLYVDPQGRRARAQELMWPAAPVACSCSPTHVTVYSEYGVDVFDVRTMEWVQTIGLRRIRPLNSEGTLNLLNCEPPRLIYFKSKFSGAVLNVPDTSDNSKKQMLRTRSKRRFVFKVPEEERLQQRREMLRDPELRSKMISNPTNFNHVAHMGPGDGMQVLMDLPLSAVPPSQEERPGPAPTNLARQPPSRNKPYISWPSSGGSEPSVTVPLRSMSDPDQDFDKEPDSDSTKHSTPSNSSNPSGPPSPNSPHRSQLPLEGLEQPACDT

[43] = target: Receptor-interacting serine/threonine-protein kinase 2 (Homo sapiens) (UniProt O43353)
[44] = target: Mitogen-activated protein kinase 10 (Homo sapiens) (UniProt P53779)
[45] = target: Atypical kinase COQ8B, mitochondrial (Homo sapiens) (UniProt Q96D53)

Measured: residual activity

N#CC1(c2ccccn2)CCN(Cc2cc(C(=O)O)c(=O)n3ccccc23)CC1 [MSD-M1PAM]
inactive: [1] 83% | [2] 93% | [3] 97% | [4] 92% | [5] 99% | [6] 85% | [7] 100% | [8] 100% | [9] 90% | [10] 100% | [11] 86% | [12] 99% | [13] 100% | [14] 91% | [15] 84% | [16] 98% | [17] 100% | [18] 90% | [19] 100% | [20] 93% | [21] 100% | [22] 100% | [23] 84% | [24] 95% | [25] 97% | [26] 100% | [27] 100% | [28] 82% | [29] 93% | [30] 100% | [31] 97% | [32] 92% | [33] 77% | [34] 100% | [35] 100% | [36] 87% | [37] 99% | [38] 100% | [39] 100% | [40] 96% | [41] 100% | [42] 96% | [43] 92% | [44] 82% | [45] 90%

N#CC1(c2ccccn2)CCN(Cc2cc(C(=O)N3CCCC3)c(=O)n3ccccc23)CC1
inactive: [1] 90% | [2] 93% | [3] 100% | [4] 100% | [5] 100% | [6] 96% | [7] 89% | [8] 100% | [9] 100% | [10] 72% | [11] 100% | [12] 100% | [13] 85% | [14] 61% | [15] 50% | [16] 53% | [17] 91% | [18] 98% | [19] 87% | [20] 100% | [21] 95% | [22] 100% | [23] 100% | [24] 100% | [25] 100% | [26] 99% | [27] 100% | [28] 75% | [29] 64% | [30] 90% | [31] 75% | [32] 90% | [33] 100% | [34] 92% | [35] 79% | [36] 92% | [37] 83% | [38] 98% | [39] 100% | [40] 90% | [41] 92% | [42] 63% | [43] 83% | [44] 96% | [45] 100%
